# Assay results published in patent publication US8642630B2, “Endogeneous repair factor production accelerators” (Ono Pharmaceutical Co., Ltd., priority 2002, dated 2014).
# Assays:
# [1] = system: rat leg ischemia (arteriosclerosis obliterans (ASO)) model; test: Rat leg ischemia (ASO) model; usefulness of topical administration, Example 6; type: in vivo; conditions: 0.1 mg, intramuscular administration into the ischemic left femoral part
# Description: Leg ischemia model was prepared by ligating rat left femoral artery. Blood flow in hind legs was measured by using Laser Doppler Imager (Moor Instruments) 1 week after the preparation, and the animals were divided into 4 groups (n=5) in such a manner that the average value of blood flow became almost uniform.
# Starting on the next day of the grouping, 0.1 ml/site, 2 sites, of the agent to be tested was administered by intramuscular injection into ischemic regions of the left femoral adductor (polymer group, Compound 1 group, Compound 1 MS group) and normal region of the right shoulder upper arm (Compound 1 MS group), for once a week, 4 times in total as a solution to be tested. One week after completion of the final administration, blood flows of hind legs were measured by using Laser Doppler Imager (Moor Instruments), and blood flows of the treated leg (left leg) and untreated leg (right leg) were compared and examined.
# • The polylactic acid-glycolic acid copolymer used in Preparation Example 2 was suspended in 0.2 w/v % Tween 80 solution (0.2 ml). In this connection, amount of the polylactic acid-glycolic acid copolymer is identical to the amount contained in Compound 1 MS (1 mg). Compound 1 (0.1 mg) Group: • Compound 1 (0.1 mg) was suspended in 0.2 w/v % Tween 80 solution (0.2 ml). […]
# VEGF = test: Endogenous repair factor protein producing action (in vitro), VEGF by ELISA, Example 2; type: cell-based, human; conditions: 10^-7 mol/l
# Description: An angiogenesis kit (manufactured by Kurabo; constituted from normal human umbilical cord vein vascular endothelial cells and normal human skin fibroblasts) was cultured for 3 hours, and then the culture medium (the medium for angiogenesis use attached to the angiogenesis kit was used as the culture medium and cultured at 37° C. under a moist environment of 5% carbon dioxide-95% air, and a carbon dioxide incubator BNA-121D was used as the incubator) was changed and an agent to be tested was added to each well (0.5 ml/well). The agent to be tested were solvent (DMSO) 0.1% and Compound 1 10^−7 mol/l, and the culturing was carried out by using 3 wells for each. Culture supernatants were collected before commencement of the culturing and 1, 2, 6, 24, 48 and 72 hours after the commencement. HGF and VEGF protein concentrations in the culture supernatants were measured by using an ELISA kit (R % D system-Funakoshi).
# As the agent to be tested, Compound 1 ((E)-[5-[2-[1-phenyl-1-(3-pyridyl)methylideneaminoxy]ethyl]-7,8-dihydronaphthalen-1-yloxy]acetic acid) was dissolved in dimethyl sulfoxide (DMSO) to prepare 10^−4 mol/l solution which was then used by diluting 1/1000 time with the culture medium.
# Results of the solvent control wells were compared with those of the wells treated with the agent to be tested by Dunnett's test (two-sided test). The significance level was set to 5%. […]
# [2] = system: mouse sponge transplantation model; test: Angiogenesis test using mouse sponge transplantation model, Example 8; type: in vivo; conditions: for Hemoglobin content / Sponge wet weight: 15th day; for hemoglobin concentration in the granulation tissue, in words: vs polymer group
# Description: Under anesthesia, dorsal part of a mouse was incised and a discus urethane sponge (about 5 mm in thickness and 13 mm in diameter) was embedded therein. Administration of the agent was carried out by topically administering it directly into the sponge once a day for a total of 14 times starting on the day of the sponge transplantation model preparation, or on the operation-completed day and 7th day thereafter. On the 15th day after the sponge transplantation, the sponge containing granulation tissue was extracted and observed with the naked eye, and then its wet mass was measured. In addition, this was mixed with distilled water of 4 times larger amount than the wet mass, homogenized and centrifuged, and then the supernatant was subjected to the measurement of the hemoglobin content using Hemoglobin 13-Test Wako (manufactured by Wako Pure Chemical Industries).
# • The polylactic acid-glycolic acid copolymer used in Preparation Example 2 was suspended in 0.2 w/v % Tween 80 solution (0.05 ml). In this connection, amount of the polylactic acid-glycolic acid copolymer is identical to the amount contained in Compound 1 MS (200 μg). Compound 1 (20 μg) Group: • Compound 1 (20 μg) was suspended in 0.2 w/v % Tween 80 solution (0.05 ml). Compound 1 (40 μg) Group:
# Compound 1 (40 μg) was suspended in 0.2 w/v % Tween 80 solution (0.05 ml).
# • Compound 1 (200 μg) was suspended in 0.2 w/v % Tween 80 solution (0.05 ml). Compound 1 MS (200 μg) group: • The microsphere preparation produced in Preparation Example 2 containing […] of Compound 1 was suspended in 0.2 w/v % Tween 80 solution (0.05 ml). Compound 1 MS (400 μg) Group: • The microsphere preparation produced in Preparation Example 2 containing 400 μg of Compound 1 was suspended in 0.2 w/v % Tween 80 solution (0.05 ml). Compound 3 (20 μg) Group: • Compound 3 (20 μg) was suspended in 0.2 w/v % Tween 80 solution (0.05 ml).
# [3] = 20 μg into the sponge once a day, 14 days of repeated administration
# [4] = 40 μg into the sponge once a day, 14 days of repeated administration
# [5] = 200 μg into the sponge, two administrations at 7 day intervals
smiles,measurement,setting,value
"O=C(O)COc1cccc2c1CCC=C2CCO/N=C(\c1ccccc1)c1cccnc1 [Compound 1, (E)-[5-[2-[1-phenyl-1-(3-pyridyl)methylideneaminoxy]ethyl]-7,8-dihydronaphthalen-1-yloxy]acetic acid]","increase in the blood flow, in words",[1],significant blood flow increasing action was not observed
same,Treated leg/untreated leg blood flow ratio,"[1]; once a week x4, 1 week after final administration",60.5 ± 3.1%
same,"production of VEGF protein, in words","VEGF; 72 hours of culturing, vs solvent control",accelerated production of HGF protein and VEGF protein statistically significantly
same,VEGF protein concentration in culture supernatant,"VEGF; after 72 hours of culturing, average of 3 wells ± SD",3034 ± 30 pg/mL
same,Hemoglobin content,[2]; [3],2.403 ± 0.533 mg/g wet tissue
same,Sponge wet weight,[2]; [3],0.3843 ± 0.0681 g
same,"hemoglobin concentration in the granulation tissue, in words","[2]; 20 μg, 14 days of repeated administration","showed an increasing tendency, but is not a significant increase"
same,Hemoglobin content,[2]; [4],3.010 ± 0.808 mg/g wet tissue
same,Sponge wet weight,[2]; [4],0.5136 ± 0.0938 g
same,"hemoglobin concentration in the granulation tissue, in words","[2]; 40 μg, 14 days of repeated administration","showed an increasing tendency, but is not a significant increase"
same,Hemoglobin content,[2]; [5],1.964 ± 0.289 mg/g wet tissue
same,Sponge wet weight,[2]; [5],0.4123 ± 0.0320 g
same,"hemoglobin concentration in the granulation tissue, in words","[2]; 200 μg, two administrations at 7 day intervals",did not increase
